Melting point data for 89 compounds are collected here from a melting point compilation (Tetko et al.; mined from patent text by program, amines drawn as free bases though some values may be those of a salt).

The term melting point denotes the temperature of the solid-liquid transition. Turning to `CC(=O)On1cc(-c2ccccc2)c(=O)c(-c2ccccc2)c1`, the melting point lay within 197 to 199 °C. Compound `CC(=O)N1c2cc(Cl)ccc2Sc2ccc(C(C)N(O)C(N)=O)cc21` (centres undefined) registered a melting point of 157 to 159 °C.

Compound `O=C(CNc1ccc2[nH]c(=O)oc2c1)N1CCC(Oc2ccc(Cl)cc2)CC1` registered a melting point of 180 to 183 °C. `O=S(=O)(Nc1cccnc1Nc1ccccc1)c1ccccc1Cl` had a melting point of 140 to 141 °C. `CCc1cnc(CSc2cnc(NC(C)=O)s2)o1` yielded a melting point of 147 to 148 °C. Compound `COC(=O)c1ccc(OCCCc2ccccc2)cc1O` came in with a melting point of 101 to 102 °C.

In the case of `CC(C)(C)[N+]([O-])=Cc1ccc(S(C)(=O)=O)o1`, the melting point came to 138 °C. For the compound `COc1ccc(N2CCN(c3c(C)c(C)c4c(c3C)OC(C)(C)C4(O)c3ccc(C)cc3)CC2)cc1` (centres undefined), the melting point lay in the range of 162 to 164 °C. For the compound `COC(=O)CCCc1nc(-c2ccc(C)cc2)oc1C(F)(F)F`, the melting point is 44.5 to 45 °C. `O=C1CCCc2ccc(OCCCC(=O)N3CCOCC3)cc21` returned a melting point of 88 to 90 °C. Turning to `Cc1cc(Cl)c(N)c(Cl)c1`, the melting point was 50 to 52 °C.

In turn, `C=C1C[C@@H]2C(=O)OC(=O)[C@@H]2C1` showed a melting point of 50 to 51 °C. Take `CC1CCN(C(=O)Oc2ccc(Oc3ccccc3)cc2F)CC1`: the melting point is 43 to 46 °C. Under `CCOc1nn(-c2ccc(C(F)(F)F)cn2)cc1CCCOc1cccc(CC(=O)O)c1F` stands 120 to 121 °C; under `CN1C(=O)SC(C)(S(=O)(=O)c2cccc3c(Br)cccc23)C1=O` (centres undefined), 160 to 161 °C.

`FC(F)(F)Sc1cc(C(F)(F)F)[nH]c1-c1ccc(Cl)cc1` gave a melting point of 53 to 55 °C. In turn, `C=C(C)COCC(C)C1CC=C2C3=C(CCC21C)C1(C)CCC(O)C(C)(C)C1CC3` (centres undefined) showed a melting point of 113 to 115 °C. With `CCCCCCCCCCCCCCOc1ccc(OCc2ccccc2)c(C(=O)N(CC(=O)O)CC(=O)O)c1`, the melting point fell in the range of 71 to 74 °C.

In the case of `CCC(=O)N(C)c1ccc(C(=O)C=CN(C)C)cc1`, the melting point fell in the range of 76 to 78 °C. Under `COc1nc2ccccc2cc1N(C(=O)N1CCN(c2cc(C)cc(C)c2)CC1)C(C)C` stands 114 to 115 °C; under `CCCCN1CCC(CCC(=O)c2ccc(N)nc2OC)CC1`, 85 to 89 °C; under `O=C(NO)c1ccccc1Nc1c(Cl)cccc1Cl`, 171 to 173 °C. `O=C(O)c1cccc(-c2cc(-c3ccc(C(F)(F)F)cc3)on2)c1` returned a melting point of 276 to 277 °C.

Regarding `Cc1ccc(-c2ccc3c(c2)C=C(C(=O)OC(C)(C)C)CO3)cc1`, the melting point was 80 to 82 °C. For `CCOC(=O)c1coc2cc(NS(C)(=O)=O)c(Oc3ccccc3)cc2c1=O`, the melting point is 167 to 168 °C. The compound `O=c1nc(-c2ccnc(C3CNCCO3)c2)sc2ccccc12` (centres undefined) returned a melting point of 157 to 158 °C. `COCc1cccc(COC)c1SSc1c(COC)cccc1COC` came in with a melting point of 89 to 90 °C.

As to `O=C1c2cc3nnn(CCC4CCCCC4)c(=O)c3cc2OC2CCCN12` (centres undefined), the melting point was 170 °C. `COc1cc(C=C(CC(=O)N2CCOCC2)C(=O)O)cc(OC)c1OC` registered a melting point of 135 to 138 °C.

For the compound `COC[C@H]1CC[C@@H](n2c(=O)[nH]c3c(C(N)=O)nc(-c4cccc(O)c4)nc32)CC1`, the melting point lay within 324 to 326 °C. `CCOC(=O)c1ccc(-n2ccc(=O)cc2)cc1` had a melting point of 178 to 180 °C.

In turn, `N#Cc1cc(F)cc(-c2cc([N+](=O)[O-])c3c(c2)C2(CCCCC2)C(=O)N3)c1` came in with a melting point of 196 °C.

Turning to `Cc1ccc(C2=CCCNC2)nc1C`, the melting point was in the range of 102 to 104 °C. In the case of `NC(=O)c1sc2ncnc(-c3cccc(NC(=O)Nc4ccncc4)c3)c2c1N` it was 177 to 179 °C; in that of `CCOC(=O)Cc1ccc(NC2=NN(c3ccc(C)cc3)CC2)cc1`, 145 to 146 °C; in that of `O=C(O)c1ccc(-c2nn(Cc3ccccc3)c3ccccc23)o1`, 200 to 202 °C.

The compound `N[C@@H](CC(C(=O)O)=C1CCCC1)C(=O)O` gave a melting point of 205 °C. In the case of `Nc1noc(-c2ccc(CN3CCCCCC3)s2)n1` it was 135 to 136 °C; in that of `Cc1cc(-c2sc(N3CCN(Cc4ccc(F)cc4)C3=O)nc2C)n[nH]1`, 218 to 221 °C. Under `NNC(=O)N(O)Cc1ccc(OCc2csc(-c3ccccc3)n2)cc1` stands 144 to 145 °C. `Cc1c(F)cccc1CC(=Cc1ccccc1)[N+](=O)[O-]` returned a melting point of 111 to 112 °C. Turning to `CC(C)(C)c1ccc(NC(=O)NCc2ccc(-n3c(-c4cccnc4N)nc4cccnc43)cc2)cc1`, the melting point is 210 to 212 °C. Under `COC(=O)c1ccc(/C=C/c2nc(-c3ccccc3)c(C)s2)cc1` stands 156 to 157 °C; under `C[Si](C)(C)C#Cc1ccc2c(c1)C(=O)N(c1ccc3c(c1)C=C3)C2=O`, 192 to 193 °C; under `COC(=O)C1=C(C)Nc2ccccc2SC1c1ccc(C)cc1` (centres undefined), 148 to 150 °C. As to `O=C(CCC(Cl)(Cl)Cl)Nc1cccc(-c2ccnc3c(C(=O)c4cccs4)cnn23)c1`, the melting point was 189 to 191 °C.

For `CN1CCNC1=C[N+](=O)[O-]`, the melting point lay within 142 to 144 °C. As for `CC(=O)OCCCn1c(NC(=O)c2cccs2)nc2cc(C(=O)N(C)C3CCCCC3)ccc21`, the melting point lay within 74 to 76 °C.

`COc1ccc(N2N=C(C)C(C(=O)Nc3ccc(F)cc3)C2=O)cc1` (centres undefined) yielded a melting point of 125 to 128 °C.

Consider `O=C(OCc1ccccc1)C1CCCc2[nH]c3ccccc3c21` (centres undefined), for which the melting point was 108 to 112 °C. With `Cc1cc2cc(CN3CCC(CCCC(=O)N(C)C)CC3)cnc2cc1NC(=O)c1ccc(-c2ccc(F)cc2)cc1`, the melting point amounted to 194 °C. For `O=C(NO)c1ccc(OC(=O)C2(c3ccc(OC(=O)c4ccccc4)cc3)CCCCC2)cc1`, the melting point fell in the range of 114 to 115 °C.

`NCC1(O)c2ccccc2CCc2ccccc21` had a melting point of 147 to 149 °C. Under `CC(=O)N1CCC(Nc2ncc3cc(-c4ccccc4C)c(=O)n(C4CCOCC4)c3n2)CC1` stands 235 to 237 °C; under `O=C1C2=C(SCCO2)C(=O)N1c1ccc(Cl)cn1`, 152 °C; under `Nn1c(C(F)(F)F)cc(=O)n(-c2cc(Oc3ncccc3[N+](=O)[O-])c(Cl)cc2F)c1=O`, 90 to 96 °C. Under `CN(C)CCc1cccc(N2C(=O)N(c3ccc(Cl)cc3Cl)Cc3cnc(Nc4ccccc4)nc32)c1` stands 101 to 105 °C; under `COc1ccc(C(=O)Nc2ccc(F)c(F)c2)cc1NCc1cccnc1`, 148 to 149 °C. With `CC(=O)CC1CC2CN(C(=O)c3ccccc3)c3cccc(c32)C1=O` (centres undefined), the melting point fell in the range of 117 to 119 °C.

The compound `CC(C)(C(=O)NCCC#N)c1ccc(C(=O)Nc2cn3cc(Cl)ccc3n2)cc1` registered a melting point of 208 to 209 °C.

On to `O=S(=O)(Nc1ccccc1/C=C/c1ccncc1)c1ccc(Cl)cc1`, for which the melting point fell in the range of 218 to 220 °C. As for `Cn1nnnc1SCCCC(=O)c1ccccn1`, the melting point lay in the range of 73 to 75 °C. In the case of `CN1CCC(c2c[nH]c3ccc(O)cc23)CC1` it was 234 to 237 °C; in that of `CCOC(=O)C(=CNc1cnc2ccccc2n1)c1ccccc1`, 193 to 194 °C. In the case of `Cn1ccnc1S(=O)(=O)C(C#N)=Cc1c(Cl)n(CC2CC2)c2ccccc12` it was 214 °C; in that of `COc1ccc(S(=O)(=O)N(CC(N)=O)c2ccc(Cl)cc2C(O)c2ccccc2C(F)(F)F)cc1OC` (centres undefined), 129 °C. Compound `O=C(O)C1=C(Sc2ccccc2)CC2CC(=O)C12` (centres undefined) came in with a melting point of 213 to 215 °C.

`O=C1c2[nH]c3cc(-c4ccccc4)nn3c(=O)c2CCN1C1CCCCC1`: the melting point was greater than 320 °C. Take `CC(=O)NCC[C@@H]1CCc2ccc3nn(C)c(F)c3c21`: the melting point is 155 to 156 °C. As for `CC1C=CCCC1C1OC(=O)NC1=O` (centres undefined), the melting point fell in the range of 97 to 103 °C. Under `O=C(O)c1cnc2cc([N+](=O)[O-])ccc2n1` stands 208 to 210 °C; under `COc1cc2c(cc1OC)[C@@H]1CCCC[C@@H]1N=C2c1ccc(C(=O)OCC2CC2)cc1` (racemic), 147 to 148 °C. Under `CCOC(=O)C=C(c1ccc(Cl)cc1)c1ccc(Cl)cc1` stands 54 to 56 °C; under `CN(C)c1ccc(C(=O)c2cccc(N)c2)cc1`, 110 °C.

Compound `CCCc1cc2c(cc1C(=O)c1ccc(C(O)=NO)cc1)C(C)(C)CCC2(C)C` gave a melting point of 255 to 257 °C. As for `CC1COCc2nc3c(N)nc4cc(CCC(=O)N5CCOCC5)ccc4c3n21` (centres undefined), the melting point was 245 to 247 °C. With `CC(C)(C)NS(=O)(=O)c1c(C(Br)Br)nsc1OCC(F)(F)F`, the melting point was 135 to 138 °C. The compound `OCC1OC(n2c(I)nc3cc(Cl)c(Cl)cc32)C(O)C1O` (centres undefined) showed a melting point of 180 to 182 °C. As for `O=c1[nH]c(=O)n(CCCCCl)c2ccccc12`, the melting point was in the range of 127 to 128 °C. On to `N#CC(C(=O)N1CCOCC1)=C1Nc2ccccc2O1`, for which the melting point lay within 217 to 219 °C. In the case of `CC(C)c1ccc2c(c1)C(=O)N(C)C(c1ccc(C(C)(C)C)cc1)C2C(=O)O` (centres undefined) it was 204 to 207 °C; in that of `O=[N+]([O-])c1ccc(F)cc1Br`, 42 °C; in that of `CCCCC1(CCCC)N[C@@H](c2nc(-c3ccccc3)c[nH]2)Cc2c1sc1ccccc21`, 198 to 200 °C. In the case of `O=c1[nH]c2ncc(-c3ccc(-c4nc[nH]n4)nc3)nc2n1CC1CCOCC1`, the melting point fell in the range of 353 to 356 °C. The compound `COc1ccc2nc3c(C(=O)O)cccn3c(=O)c2c1` gave a melting point of 272 to 274 °C.

As to `C[C@@H](Nc1ncnc2cc(OCC3CC3)c([N+](=O)[O-])cc12)c1ccccc1`, the melting point is 155 °C. Compound `COc1cc(N2CCCN(C3CCN(C)CC3)CC2)ccc1Nc1ncc2ccc(-c3ccccc3N(C)S(C)(=O)=O)n2n1` showed a melting point of 90 to 97 °C. Under `C=CCNC(=NC#N)Nc1ccc(C2=NNC(=O)CC2C)cc1` (centres undefined) stands 224 to 226 °C; under `O=[N+]([O-])c1oc2ccc(CCO)cc2c1-c1ccccc1`, 169 to 173 °C.
